One data set has as its system Mnk1/2. Details: method as in PMID 24504069. Particulars: cited from earlier work.
Another data set has as its system MDA-MB-231-Luc cells. The data set is described as follows: Experimental lung metastasis assay. The format is in vivo, SCID mice. Particulars: 20 mg/kg IP, 2 weeks, IVIS luciferase signal in lung. As for the experimental part: The MDA-MB-231-luc cells were the kind gift of Dr. Stuart Martin (UMB). Cells were grown in DMEM with 10% FBS, hygromycin and G418 to subconfluence (~50–70%) and then trypsinized, washed, and resuspended in PBS. 1 × 10^6 cells were injected IV in a volume of 100 µL. Mice were treated for 14 days with vehicle or VNLG-152 by IP injection at doses of 20 mg/kg. The luciferase signals in the mice were detected and photographed using an IVIS in vivo image system on days 0, 1 and 14 [81].

A further data set has as its system Br-001 tumor xenografts. As to the kind of experiment: Patient-derived TNBC xenograft (PDX), IP. The note with it: 10 mg/kg/day IP. The format is in vivo, mice. As for the experimental part:
Female NSG (NOD.Cg-PrkdcscidIl2rgtm1Wjl/SzJ) mice (Jackson Laboratory) 5–6 weeks of age were housed under complete aseptic conditions, fed autoclaved pellets and sterile water ad libitum. Primary triple negative breast cancer tissue from a patient in University of Maryland Medical Center ([…]) was excised during surgery, de-identified and then implanted into the mammary fat pad of female NSG mice. After expansion and viable freeze back, breast PDX (Br-001) was grown in three mice as a subcutaneous tumor. When tumors reached approximately 600–800 mm^3, mice were euthanized, tumors excised aseptically and cut into 3 mm × 3 mm pieces and re-implanted subcutaneously in female NSG mice. The established xenografts were subsequently passaged from mouse to mouse to expand xenograft numbers. […] Tumors were measured and processed as described for the MDA-MB-231 xenograft model.

Another data set concerns mTORC1 signaling. The data set is described as follows: Western blot of mTORC1 signaling in MDA-MB-231 and MDA-MB-468 cells. Particulars: 72 h. Type of data set: cell-based, human. As for the experimental part: (§1) MDA-MB-231, MDA-MB-468, MDA-MB-436, MDA-MB-453, HCC-1806, and MFM-223 cells were purchased from American Type Culture Collection (ATCC, Manassas, VA, USA), and authenticated at the Biopolymer/Genomics Core Facility, University of Maryland Baltimore. Cells were tested for mycoplasma contamination at the University of Maryland Marlene and Stewart Greenebaum Cancer Center (UMGCC) Translational Shared Service. Cells were cultured in the recommended media supplemented with 10% FBS and plated 1 day prior to treatment. Cells were treated with the indicated dose and time in the figure at 37 °C in 5% CO2. Protein lysates were harvested in RIPA lysis buffer (Sigma). Western blotting was done as described previously with antibodies described above.
In general terms: Immunoblotting shows a protein as a band on a membrane.

The next data set relates to eIF4F complex. The data set is described as follows: m7GTP pull-down of eIF4F complex in TNBC cells. Type of data set: cell-based, human. The note with it: 20 µM, 24 h, MDA-MB-231 and MDA-MB-468. As for the experimental part:
eIF4F complex in cell extracts was detected using affinity chromatography 7-methyl GTP (m7GTP)-Sepharose as described previously. Briefly, MDA-MB-231 treated with 20 μM VNLG-152 for 24 h were lysed in buffer containing 20 mM Tris-HCl (pH 7.4), 150 mM NaCl, 1 mM EDTA, 1 mM EGTA, 1 mM β-glycerophosphate, 1 mM Na3VO4, 1% Triton X-100, 2.5 mM sodium pyrophosphate, and protease inhibitor cocktail, on ice for 15 min. After centrifugation at 12,000× g for 15 min at 4 °C, the supernatants were collected and incubated with m7GTP-Sepharose (GE Healthcare Bio-Sciences Corp./Amersham, Piscataway, NJ, USA) at 4 °C for 2 h with constant shaking. Beads were washed three times with lysis buffer and three times with 1× Phosphate Buffered Salin, (PBS). The samples were then denatured, and the supernatants were then loaded to SDS-PAGE for immunoblotting.

Another data set concerns MDA-MB-231 cells. The data set is described as follows: MTT cell viability with/without siMnk1 knockdown. Type of data set: cell-based, human. Particulars: 5 μM. As for the experimental part: Small interfering RNA targeting the Mnk1 (siMnk1) gene and corresponding scramble siRNA sequence (siControl) were purchased from Ambion ((Waltham, MA, USA). Briefly, 3 × 10^5 MDA-MB-231 cells were seeded into 6 cm cell culture dish (Corning®) and incubated for 24 h in for normal culture medium. Subsequently, cells were subjected to transfection with 100 nM of siMnk1 or siControl using the RNAi Human/Mouse Starter Kit (Qiagen, (Qiagen, Hilden, Germany) following the manufacturer’s instructions for 48 h. For cell growth assay experiments, transfection complex was removed after 48 h, cells were washed twice with phosphate-buffered saline and replaced with normal growth medium. Twenty-four hour later, 5 μM of VNLG-152R was added to the growth media and harvested after 24 h. Non-transfected cells were also treated with 5 μM of VNLG-152R for 24 h. Protein silencing was confirmed by immunoblot analysis.

Another data set has as its system EMT-related proteins. The data set is described as follows: Western blot of EMT-related proteins in MDA-MB-231 and MDA-MB-468 cells. Type of data set: cell-based, human. Particulars: 24 h. As for the experimental part: as §1
Data set [1] can be described thus: 14-day oral toxicity / MTD study. The note with it: female, athymic nude, mouse, in vivo; oral, 14 days, estimated; read-out: maximum tolerated dose (MTD). Details: species or system female athymic nude mice. As for the experimental part:
Three different doses, i.e., 10, 25, and 50 mg/kg/day (formulated in 40% β-cyclodextrin in saline) of each compound were administered daily by oral gavage for 14 days. Each group consisted of 3 mice. Their body weight kinetics (loss in body weight, a clinical sign of toxicity) was observed during the 14 days of dosing following established procedures. Changes in body weight were scored on a scale of 0–4 as follows: (1) Weight loss: (10 g = 4, 7–9 g = 3, 4–6 g = 2, 1–3 g = 1; severe = 3, moderate = 2, slight = 1, none = 0).

Some results are limits rather than exact numbers.

With `CC1=C(/C=C/C(C)=C/C=C/C(C)=C/C(=O)Nc2ccc(F)cc2)C(C)(C)CCC1n1ccnc1` (racemic) [VNLG-152R, 4-(±)-(1H-imidazol-1-yl)-N-(4-fluorophenyl)-(E)-retinamide], the “inhibition of Mnk1/2 kinase activities” value in the data set with Mnk1/2 was “no inhibition of Mnk1/2 kinase activities”. For the same compound, in the data set on MDA-MB-231-Luc cells, the inhibition of metastasis is ~ 80%. The “changes in body weights” value with Br-001 tumor xenografts is recorded as “No significant changes in body weights were observed”. Also, the “tumor growth inhibition (TGI)” value in the data set on Br-001 tumor xenografts (5 days a week, 17 days) is 73.3%. Besides, the “depletion of p-mTOR (Ser2448), p4E-BP1, peIF4E and p-p70 S6K” value with mTORC1 signaling is recorded as “strong dose-dependent depletion”. Besides, in the data set on eIF4F complex, the “eIF4G and 4E-BP1 association with eIF4E” value is “decreased eIF4G and increased eukaryotic translation initiation factor 4E-binding protein 1 (4E-BP1) association with eIF4E”. In the data set with MDA-MB-231 cells (non-transfected MDA-MB-231 cells), the “reduction in cell viability” value was ~ 75%. The “cell viability in cells harboring Mnk1 knockdown” value in the data set on MDA-MB-231 cells (siMnk1-transfected MDA-MB-231 cells) is listed as “did not show any significant decrease in cell viability”. The “expression of N-Cadherin, β-catenin, MMP-2, MMP-9, Snail, Slug, Vimentin and TCF/ZEB-1” value in the data set on EMT-related proteins is recorded as “concentration-dependent decreases”. Also, the MTD (usually the largest dose that counted as tolerated) at 14 days in data set [1] is above 50 mg/kg.

These data come from publication PMC6468747 (Cancers, 2019).
